Test results published in patent publication US20240360082A1, “SUBSTITUTED PYRIDONE COMPOUNDS USEFUL TO TREAT ORTH[…]” (priority 2021, published 2024).

Target: influenza A virus minigenome (PB2, PB1, PA, NP proteins) (UniProt P04665)
Assay type: cell-based
Settings: read-out: RNP_ Hubei B IC50

Chain of influenza A virus minigenome (PB2, PB1, PA, NP proteins) (P04665 whole entry): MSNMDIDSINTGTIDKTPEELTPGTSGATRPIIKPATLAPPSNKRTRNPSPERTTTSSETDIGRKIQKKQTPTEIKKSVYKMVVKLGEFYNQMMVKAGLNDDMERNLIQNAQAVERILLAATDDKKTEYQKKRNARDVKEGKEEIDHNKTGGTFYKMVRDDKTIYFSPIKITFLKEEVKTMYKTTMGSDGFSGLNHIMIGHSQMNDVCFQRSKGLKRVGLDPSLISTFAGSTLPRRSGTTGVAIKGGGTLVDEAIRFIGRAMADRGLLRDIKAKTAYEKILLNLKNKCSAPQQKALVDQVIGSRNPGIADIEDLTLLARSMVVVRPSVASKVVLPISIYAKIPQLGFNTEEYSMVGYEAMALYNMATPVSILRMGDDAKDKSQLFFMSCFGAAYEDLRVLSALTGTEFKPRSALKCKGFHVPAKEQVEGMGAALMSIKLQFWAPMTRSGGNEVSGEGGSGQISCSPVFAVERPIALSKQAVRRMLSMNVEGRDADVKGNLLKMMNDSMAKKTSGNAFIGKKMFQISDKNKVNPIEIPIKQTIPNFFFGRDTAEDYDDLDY

First: C[C@@H]1COC[C@H](COc2ccc(-c3cc(C(N)=O)c(=O)[nH]c3C(F)(F)F)cc2)O1 [Example 328, 5-(4-(((2R,6R)-6-methyl-1,4-dioxan-2-yl)methoxy)phenyl)-2-oxo-6-(trifluoromethyl)-1,2-dihydropyridine-3-carboxamide]
Second: CCOC[C@@]1(C)COC[C@@H](COc2ccc(-c3cc(C(N)=O)c(=O)[nH]c3C(F)(F)F)cc2)O1 [Example 428, 5-(4-(((2S,6S)-6-(ethoxymethyl)-6-methyl-1,4-dioxan-2-yl)methoxy)phenyl)-2-oxo-6-(trifluoromethyl)-1,2-dihydropyridine-3-carboxamide]
The IC50 of the first is higher: 10 to 25 µM for the first, 5 to 10 µM for the second.

`Cc1onc(-c2ccncc2)c1COc1ccc(-c2cc(C(N)=O)c(=O)[nH]c2C(F)(F)F)cc1` [Example 270, 5-(4-((5-methyl-3-(pyridin-4-yl)isoxazol-4-yl)methoxy)phenyl)-2-oxo-6-(trifluoromethyl)-1,2-dihydropyridine-3-carboxamide] and `COCCn1nccc1COc1ccc(-c2cc(C(N)=O)c(=O)[nH]c2C(F)(F)F)cc1` [Example 219, 5-(4-((1-(2-methoxyethyl)-1H-pyrazol-5-yl)methoxy)phenyl)-2-oxo-6-(trifluoromethyl)-1,2-dihydropyridine-3-carboxamide] fall in the same range of IC50: 25 to 50 µM for the first, 25 to 50 µM for the second.

First: NC(=O)c1cc(-c2ccc(OCC3(F)COCCO3)cc2)c(C(F)(F)F)[nH]c1=O (stereo not shown) [Example 388, 5-(4-((2-fluoro-1,4-dioxan-2-yl)methoxy)phenyl)-2-oxo-6-(trifluoromethyl)-1,2-dihydropyridine-3-carboxamide]
Second: CN1CC(COc2ccc(-c3cc(C(N)=O)c(=O)[nH]c3C(F)(F)F)cc2)OC1=O (stereo not shown) [Example 233, 5-(4-((3-methyl-2-oxooxazolidin-5-yl)methoxy)phenyl)-2-oxo-6-(trifluoromethyl)-1,2-dihydropyridine-3-carboxamide]
The IC50 of the first is lower: 5 to 10 µM for the first, 25 to 50 µM for the second. The first is the more potent here.

Same assay, conditions: read-out: RNP_Hubei B

`CO[C@@H]1CCN(Cc2ccc(-c3cc(C(N)=O)c(=O)[nH]c3C(F)(F)F)cc2)C1` [Example 41, (R)-5-(4-((3-methoxypyrrolidin-1-yl)methyl)phenyl)-2-oxo-6-(trifluoromethyl)-1,2-dihydropyridine-3-carboxamide] and `NC(=O)c1cc(-c2ccc(CN3CCCCC3)cc2)c(C(F)(F)F)[nH]c1=O` [Example 44, 2-oxo-5-(4-(piperidin-1-ylmethyl)phenyl)-6-(trifluoromethyl)-1,2-dihydropyridine-3-carboxamide] fall in the same range of IC50: 25 to 50 µM for the first, 25 to 50 µM for the second.

`Cc1noc(C)c1COc1ccc(-c2cc(C(N)=O)c(=O)[nH]c2C(F)(F)F)cc1` [Example 107, 5-(4-((3,5-dimethylisoxazol-4-yl)methoxy)phenyl)-2-oxo-6-(trifluoromethyl)-1,2-dihydropyridine-3-carboxamide] and `NC(=O)c1cc(-c2ccc(OCc3cccnc3)cc2)c(C(F)(F)F)[nH]c1=O` [Example 72, 2-oxo-5-(4-(pyridin-3-ylmethoxy)phenyl)-6-(trifluoromethyl)-1,2-dihydropyridine-3-carboxamide] fall in the same range of IC50: 25 to 50 µM for the first, 25 to 50 µM for the second.

First: CC(Oc1ccc(-c2cc(C(N)=O)c(=O)[nH]c2C(F)(F)F)cc1)c1cccnc1 (single isomer, unassigned) [Example 80, (R or S)-2-oxo-5-(4-(1-(pyridin-3-yl)ethoxy)phenyl)-6-(trifluoromethyl)-1,2-dihydropyridine-3-carboxamide]
Second: NC(=O)c1cc(-c2ccc(OCC3COCC(C(F)F)O3)cc2)c(C(F)(F)F)[nH]c1=O (single isomer, unassigned) [Example 348, 5-(4-((6-(difluoromethyl)-1,4-dioxan-2-yl)methoxy)phenyl)-2-oxo-6-(trifluoromethyl)-1,2-dihydropyridine-3-carboxamide]
The IC50 of the first is higher: 10 to 25 µM for the first, 5 to 10 µM for the second. The second is the more potent here.

Molecule `CC1(C)CN(Cc2ccc(-c3cc(C(N)=O)c(=O)[nH]c3C(F)(F)F)cc2)CCO1` [Example 39, 5-(4-((2,2-dimethylmorpholino)methyl)phenyl)-2-oxo-6-(trifluoromethyl)-1,2-dihydropyridine-3-carboxamide] has an IC50 of 10 to 25 µM.
